Legend:
Type in all cases: in vivo
[1] = tested on: redroot pigweed (Amaranthus retroflexus, AMARE); assay: Pre-emerge test, greenhouse herbicide activity screening; conditions: for phytotoxicity rating AMARE: pre-emerge, 14 days after application, scale 0-100; for Pre-emerge Herbicidal Activity AMARE: phytotoxicity rating 0-100, 14 days after application
Outline: (§1)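 Plants grown in 10 cm pots of sandy loam mix received acetone-dissolved compounds through a moving flat-fan nozzle. Doses ranged from 15 to 1000 g ai/ha. Pre-emerge pots were seeded one day earlier, post-emerge pots 8–21 days earlier. Fourteen days on, each pot was graded 0–100 for damage.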

[2] = tested on: barnyardgrass (Echinochloa crus-galli, ECHCG); assay: as above; conditions: for phytotoxicity rating ECHCG: pre-emerge, 14 days after application, scale 0-100; for Pre-emerge Herbicidal Activity ECHCG: phytotoxicity rating 0-100, 14 days after application
Outline: (§2)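 Rating: 0–100 visual injury, 14 DAA. Application: acetone, 187 l/ha, 15–1000 g ai/ha, flat-fan track sprayer with nozzle 40–45 cm above soil or canopy. Post-emerge runs used 0.25% v/v surfactant on 2–3 leaf plants.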

[3] = tested on: common ragweed (Ambrosia artemisizfolia L., AMBEL); assay: as above; conditions: for phytotoxicity rating AMBEL: pre-emerge, 14 days after application, scale 0-100; for Pre-emerge Herbicidal Activity AMBEL: phytotoxicity rating 0-100, 14 days after application
Outline: as §2

[4] = tested on: green foxtail (Setaria viridis, SETVI); assay: as above; conditions: for phytotoxicity rating SETVI: pre-emerge, 14 days after application, scale 0-100; for Pre-emerge Herbicidal Activity SETVI: phytotoxicity rating 0-100, 14 days after application
Outline: as §2

[5] = tested on: ivyleaf morningglory (Ipomoea hederacea, IPOHE); assay: as above; conditions: for phytotoxicity rating IPOHE: pre-emerge, 14 days after application, scale 0-100; for Pre-emerge Herbicidal Activity IPOHE: phytotoxicity rating 0-100, 14 days after application
Outline: as §2

[6] = tested on: johnsongrass (Sorghum halepense, SORHA); assay: as above; conditions: for phytotoxicity rating SORHA: pre-emerge, 14 days after application, scale 0-100; for Pre-emerge Herbicidal Activity SORHA: phytotoxicity rating 0-100, 14 days after application
Outline: as §2

[7] = tested on: lambsquarters (Chenopodium album, CHEAL); assay: as above; conditions: for phytotoxicity rating CHEAL: pre-emerge, 14 days after application, scale 0-100; for Pre-emerge Herbicidal Activity CHEAL: phytotoxicity rating 0-100, 14 days after application
Outline: as §2

[8] = tested on: large crabgrass (Digitaria sanguinalis, DIGSA); assay: as above; conditions: for phytotoxicity rating DIGSA: pre-emerge, 14 days after application, scale 0-100; for Pre-emerge Herbicidal Activity DIGSA: phytotoxicity rating 0-100, 14 days after application
Outline: as §2

[9] = tested on: sicklepod (Cassia obtusifolia, CASOB); assay: as above; conditions: for phytotoxicity rating CASOB: pre-emerge, 14 days after application, scale 0-100; for Pre-emerge Herbicidal Activity CASOB: phytotoxicity rating 0-100, 14 days after application
Outline: as §2

[10] = tested on: velvetleaf (Abutilon theophrasti, ABUTH); assay: as above; conditions: for phytotoxicity rating ABUTH: pre-emerge, 14 days after application, scale 0-100; for Pre-emerge Herbicidal Activity ABUTH: phytotoxicity rating 0-100, 14 days after application
Outline: as §2

[11] = tested on: field corn (Zea mays L., var. Dekalb 535, CORN); assay: Pre-emerge test, crop safety; conditions: for phytotoxicity rating CORN (crop damage): pre-emerge, 14 days after application, scale 0-100; for Pre-emerge Herbicidal Activity CORN: crop damage rating 0-100, 14 days after application
Outline: (§3)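 Applied at 15–1000 g ai/ha from acetone in 187 l/ha spray volume. Post-emergence applications included 0.25% v/v non-ionic surfactant and reached plants sown 8–21 days before. Pre-emergence applications were incorporated by surface watering. Efficacy or crop damage was rated on a 0–100 scale after 14 days.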

[12] = tested on: upland rice (Oryza sp., var. Tebonnet, RICE); assay: Pre-emerge test, crop safety; conditions: for phytotoxicity rating RICE (crop damage): pre-emerge, 14 days after application, scale 0-100; for Pre-emerge Herbicidal Activity RICE: crop damage rating 0-100, 14 days after application
Outline: as §3

[13] = tested on: barnyardgrass (Echinochloa crus-galli, ECHCG); assay: Post-emerge test, greenhouse herbicide activity screening; conditions: post-emerge, 14 days after application, rating scale 0-100
Outline: as §2

[14] = tested on: green foxtail (Setaria viridis, SETVI); assay: as above; conditions: post-emerge, 14 days after application, rating scale 0-100
Outline: as §2

[15] = tested on: ivyleaf morningglory (Ipomoea hederacea, IPOHE); assay: as above; conditions: post-emerge, 14 days after application, rating scale 0-100
Outline: as §2

[16] = tested on: johnsongrass (Sorghum halepense, SORHA); assay: as above; conditions: post-emerge, 14 days after application, rating scale 0-100
Outline: as §2

[17] = tested on: lambsquarters (Chenopodium album, CHEAL); assay: as above; conditions: post-emerge, 14 days after application, rating scale 0-100
Outline: as §2

[18] = tested on: large crabgrass (Digitaria sanguinalis, DIGSA); assay: as above; conditions: post-emerge, 14 days after application, rating scale 0-100
Outline: as §2

[19] = tested on: redroot pigweed (Amaranthus retroflexus, AMARE); assay: as above; conditions: post-emerge, 14 days after application
Outline: as §2

[20] = tested on: sicklepod (Cassia obtusifolia, CASOB); assay: as above; conditions: post-emerge, 14 days after application, rating scale 0-100
Outline: as §2

[21] = tested on: velvetleaf (Abutilon theophrasti, ABUTH); assay: as above; conditions: post-emerge, 14 days after application, rating scale 0-100
Outline: as §2

[22] = tested on: field corn (Zea mays L., var. Dekalb 535, CORN); assay: Post-emerge test, crop safety; conditions: post-emerge, 14 days after application, rating scale 0-100
Outline: as §1

[23] = tested on: upland rice (Oryza sp., var. Tebonnet, RICE); assay: Post-emerge test, crop safety; conditions: post-emerge, 14 days after application, rating scale 0-100
Outline: as §1

[24] = 250 g ai/ha, rating scale 0-100

CCCSCC(=O)Nc1c(OC)c(Cl)cc(F)c1-n1c(=O)cc(C(F)(F)F)n(C)c1=O [2-174]
phytotoxicity rating AMARE ([1]; 63 g ai/ha): 90
phytotoxicity rating AMARE ([1]; 250 g ai/ha): 100
phytotoxicity rating ECHCG ([2]; 63 g ai/ha): 0
phytotoxicity rating ECHCG ([2]; 250 g ai/ha): 60
phytotoxicity rating AMBEL ([3]; 63 g ai/ha): 10
phytotoxicity rating AMBEL ([3]; 250 g ai/ha): 90
phytotoxicity rating SETVI ([4]; 63 g ai/ha): 20
phytotoxicity rating SETVI ([4]; 250 g ai/ha): 90
phytotoxicity rating IPOHE ([5]; 63 g ai/ha): 30
phytotoxicity rating IPOHE ([5]; 250 g ai/ha): 100
phytotoxicity rating SORHA ([6]; 63 g ai/ha): 10
phytotoxicity rating SORHA ([6]; 250 g ai/ha): 90
phytotoxicity rating CHEAL ([7]; 63 g ai/ha): 80
phytotoxicity rating CHEAL ([7]; 250 g ai/ha): 100
phytotoxicity rating DIGSA ([8]; 63 g ai/ha): 20
phytotoxicity rating DIGSA ([8]; 250 g ai/ha): 70
phytotoxicity rating CASOB ([9]; 63 g ai/ha): 40
phytotoxicity rating CASOB ([9]; 250 g ai/ha): 80
phytotoxicity rating ABUTH ([10]; 63 g ai/ha): 100
phytotoxicity rating ABUTH ([10]; 250 g ai/ha): 100
phytotoxicity rating CORN (crop damage) ([11]; 63 g ai/ha): 0
phytotoxicity rating CORN (crop damage) ([11]; 250 g ai/ha): 60
phytotoxicity rating RICE (crop damage) ([12]; 63 g ai/ha): 10
phytotoxicity rating RICE (crop damage) ([12]; 250 g ai/ha): 50
ECHCG phytotoxicity rating ([13]; 63 g ai/ha): 0
ECHCG phytotoxicity rating ([13]; 250 g ai/ha): 0
SETVI phytotoxicity rating ([14]; 63 g ai/ha): 10
SETVI phytotoxicity rating ([14]; 250 g ai/ha): 10
IPOHE phytotoxicity rating ([15]; 63 g ai/ha): 70
IPOHE phytotoxicity rating ([15]; 250 g ai/ha): 80
SORHA phytotoxicity rating ([16]; 63 g ai/ha): 0
SORHA phytotoxicity rating ([16]; 250 g ai/ha): 0
CHEAL phytotoxicity rating ([17]; 63 g ai/ha): 55
CHEAL phytotoxicity rating ([17]; 250 g ai/ha): 85
DIGSA phytotoxicity rating ([18]; 63 g ai/ha): 0
DIGSA phytotoxicity rating ([18]; 250 g ai/ha): 10
AMARE phytotoxicity rating ([19]; 63 g ai/ha, rating scale 0-100): 60
AMARE phytotoxicity rating [19, 24]: 60
CASOB phytotoxicity rating ([20]; 63 g ai/ha): 60
CASOB phytotoxicity rating ([20]; 250 g ai/ha): 75
ABUTH phytotoxicity rating ([21]; 63 g ai/ha): 60
ABUTH phytotoxicity rating ([21]; 250 g ai/ha): 80
CORN phytotoxicity rating (crop damage) ([22]; 63 g ai/ha): 10
CORN phytotoxicity rating (crop damage) ([22]; 250 g ai/ha): 25
RICE phytotoxicity rating (crop damage) ([23]; 63 g ai/ha): 20
RICE phytotoxicity rating (crop damage) ([23]; 250 g ai/ha): 20

CC(C)Oc1c(Cl)cc(F)c(-n2c(=O)cc(C(F)(F)F)n(C)c2=O)c1NC(=O)c1ccc2ccccc2c1 [2-197]
Pre-emerge Herbicidal Activity AMARE ([1]; 63 g ai/ha): 100
Pre-emerge Herbicidal Activity AMARE ([1]; 250 g ai/ha): 100
Pre-emerge Herbicidal Activity ECHCG ([2]; 63 g ai/ha): 0
Pre-emerge Herbicidal Activity ECHCG ([2]; 250 g ai/ha): 50
Pre-emerge Herbicidal Activity AMBEL ([3]; 63 g ai/ha): 100
Pre-emerge Herbicidal Activity AMBEL ([3]; 250 g ai/ha): 100
Pre-emerge Herbicidal Activity SETVI ([4]; 63 g ai/ha): 50
Pre-emerge Herbicidal Activity SETVI ([4]; 250 g ai/ha): 100
Pre-emerge Herbicidal Activity IPOHE ([5]; 63 g ai/ha): 30
Pre-emerge Herbicidal Activity IPOHE ([5]; 250 g ai/ha): 50
Pre-emerge Herbicidal Activity SORHA ([6]; 63 g ai/ha): 0
Pre-emerge Herbicidal Activity SORHA ([6]; 250 g ai/ha): 20
Pre-emerge Herbicidal Activity CHEAL ([7]; 63 g ai/ha): 100
Pre-emerge Herbicidal Activity CHEAL ([7]; 250 g ai/ha): 100
Pre-emerge Herbicidal Activity DIGSA ([8]; 63 g ai/ha): 80
Pre-emerge Herbicidal Activity DIGSA ([8]; 250 g ai/ha): 100
Pre-emerge Herbicidal Activity CASOB ([9]; 63 g ai/ha): 0
Pre-emerge Herbicidal Activity CASOB ([9]; 250 g ai/ha): 50
Pre-emerge Herbicidal Activity ABUTH ([10]; 63 g ai/ha): 90
Pre-emerge Herbicidal Activity ABUTH ([10]; 250 g ai/ha): 100
Pre-emerge Herbicidal Activity CORN ([11]; 63 g ai/ha): 0
Pre-emerge Herbicidal Activity CORN ([11]; 250 g ai/ha): 0
Pre-emerge Herbicidal Activity RICE ([12]; 63 g ai/ha): 30
Pre-emerge Herbicidal Activity RICE ([12]; 250 g ai/ha): 80
phytotoxicity rating ECHCG ([13]; 63 g ai/ha): 0
phytotoxicity rating ECHCG ([13]; 250 g ai/ha): 20
phytotoxicity rating SETVI ([14]; 63 g ai/ha): 10
phytotoxicity rating SETVI ([14]; 250 g ai/ha): 20
phytotoxicity rating IPOHE ([15]; 63 g ai/ha): 100
phytotoxicity rating IPOHE ([15]; 250 g ai/ha): 90
phytotoxicity rating SORHA ([16]; 63 g ai/ha): 0
phytotoxicity rating SORHA ([16]; 250 g ai/ha): 50
phytotoxicity rating CHEAL ([17]; 63 g ai/ha): 100
phytotoxicity rating CHEAL ([17]; 250 g ai/ha): 100
phytotoxicity rating DIGSA ([18]; 63 g ai/ha): 10
phytotoxicity rating DIGSA ([18]; 250 g ai/ha): 10
phytotoxicity rating AMARE ([19]; 63 g ai/ha, rating scale 0-100 (0 no damage, 100 complete death)): 100
phytotoxicity rating AMARE [19, 24]: 100
phytotoxicity rating CASOB ([20]; 63 g ai/ha): 80
phytotoxicity rating CASOB ([20]; 250 g ai/ha): 80
phytotoxicity rating ABUTH ([21]; 63 g ai/ha): 100
phytotoxicity rating ABUTH ([21]; 250 g ai/ha): 100
phytotoxicity rating CORN (crop damage) ([22]; 63 g ai/ha): 10
phytotoxicity rating CORN (crop damage) ([22]; 250 g ai/ha): 10
phytotoxicity rating RICE (crop damage) ([23]; 63 g ai/ha): 20
phytotoxicity rating RICE (crop damage) ([23]; 250 g ai/ha): 30
